Reference: article PMC6125541, “Bioequivalence of a Fixed-Dose Combination Tablet of the Complete Two-Drug Regimen of Dolutegravir and Rilpivirine for Treatment of HIV-1 Infection” (Antimicrobial Agents and Chemotherapy, 2018)

Tests used:
[1] = Phase I open-label randomized 2-way crossover bioequivalence study, plasma pharmacokinetics of DTG and RPV; format: in vivo, healthy adults; conditions: blind sample size reestimation after 57 participants
Excerpt: This phase I study (ViiV-clinicalstudyregister.com identifier 201676) utilized an open-label, randomized, 2-way crossover design at a single center (Quintiles, Overland Park, KS, USA) (Fig. 2). The total duration of the study was approximately 8 weeks from the time of screening to the last follow-up visit. A crossover design was selected for this study to allow within-participant comparisons to be performed, thereby reducing the number of participants required for the study. Rilpivirine has a long half-life (∼50 h) ([15]); therefore, a 21-day washout between doses and a long pharmacokinetic sampling period were implemented to ensure that predose concentrations were negligible and that pharmacokinetic parameters could be well estimated.
The reference treatment consisted of DTG 50-mg tablets (Tivicay; ViiV Healthcare, Research Triangle Park, NC, USA), which were identical in composition to the commercial form except for a different film coat color, and commercial RPV 25-mg tablets (Edurant; Janssen Therapeutics, Titusville, NJ, USA). The test treatment was the FDC tablet with DTG at 50 mg and RPV at 25 mg (Juluca; ViiV Healthcare, Research Triangle Park, NC, USA).
Participants were randomly assigned 1:1 to 1 of 2 treatment sequences according to a randomization schedule generated before the start of the study. […]

[2] = cited from earlier work
[3] = parameters: method as in PMID 23979733; conditions: DTG 50 mg once daily and RPV 25 mg once daily with a moderate-fat meal; cited from earlier work
[4] = parameters: method as in PMID 24798770; conditions: cited from earlier work

Observed within-participant coefficient of variation (CVw) of Cmax [1]	SMILES	Half-life [2]	Decrease in absorption after fasting versus a normal-fat meal ([2]; fasting vs normal-fat meal)	Change in AUC0–t or Cmax on coadministration [3]	Plasma exposure in the fed state [4]
32.9%	Cc1cc(/C=C/C#N)cc(C)c1Nc1ccnc(Nc2ccc(C#N)cc2)n1 [RPV, rilpivirine]	~50 h	approximately 40%	no significant change	–
14.8%	C[C@@H]1CCO[C@H]2Cn3cc(C(=O)NCc4ccc(F)cc4F)c(=O)c(O)c3C(=O)N12 [DTG, dolutegravir]	–	–	no significant change	increase
